Results on twelve compounds are retold here after patent US8975398B2, “NAMPT inhibitors” (AbbVie Inc., priority 2012, dated 2015).

Assay [1] concerns the target NAMPT (human, recombinant, C-terminally His-tagged) (Homo sapiens, UniProt P43490). Nature of the assay: Time-Resolved Fluorescence Resonance Energy Transfer (TR-FRET) Binding Assay of NAMPT. The note with it: 6.8 nM NAMPT, 200 nM probe, equilibrated 3 hours, absence of substrates. In outline: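 Probe displacement measured by TR-FRET (Ex 337 nm; 520/495 nm ratio) after 3 h room-temperature equilibration of compound with 6.8 nM His-tagged human NAMPT, 1 nM Tb-anti-His antibody and 200 nM Oregon Green 488 nicotinamide-site probe, pH 7.5 HEPES buffer, 2% DMSO. Control-normalized data fit four-parameter logistic for IC50.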
In general terms: TR-FRET usually uses a lanthanide donor and a delayed reading to cut background.

The target of another assay is NAMPT (Homo sapiens, UniProt P43490). Put plainly: Time-Resolved Fluorescence Resonance Energy Transfer (TR-FRET) Binding Assay of NAMPT with PRPP. The note with it: 2 nM NAMPT, 2 nM probe, 200 uM PRPP and 2.5 mM ATP, equilibrated 16 hours. In outline:
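Binding measured by TR-FRET after a 16-hour equilibration meant to permit enzymatic compound modification. Substrates present at 200 uM PRPP and 2.5 mM ATP, with 2 nM enzyme, 2 nM probe, 1 nM Tb-anti-His antibody and 2% DMSO final.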

NAMPT (human, recombinant, C-terminally His-tagged), sequence (P43490 whole entry): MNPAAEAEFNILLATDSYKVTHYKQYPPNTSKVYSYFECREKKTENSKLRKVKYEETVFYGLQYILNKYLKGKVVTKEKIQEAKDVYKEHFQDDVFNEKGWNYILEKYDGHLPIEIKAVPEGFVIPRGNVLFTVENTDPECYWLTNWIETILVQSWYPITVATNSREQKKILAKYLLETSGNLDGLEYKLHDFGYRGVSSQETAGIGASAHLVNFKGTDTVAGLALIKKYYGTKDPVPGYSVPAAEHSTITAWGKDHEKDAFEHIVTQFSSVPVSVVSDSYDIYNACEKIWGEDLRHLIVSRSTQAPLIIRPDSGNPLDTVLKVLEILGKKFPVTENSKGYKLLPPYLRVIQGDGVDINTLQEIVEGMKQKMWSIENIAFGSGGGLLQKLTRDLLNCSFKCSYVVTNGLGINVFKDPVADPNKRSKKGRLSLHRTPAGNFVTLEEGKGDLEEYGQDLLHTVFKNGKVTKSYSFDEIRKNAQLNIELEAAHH
NAMPT, sequence (P43490 whole entry): as above

Consider `O=C(Nc1ccc(C2CCN(C(=O)c3ccc(C(F)(F)F)cc3)CC2)cc1)C1CN(c2cccnn2)C1` [Example 355, 1-(pyridazin-3-yl)-N-(4-{1-[4-(trifluoromethyl)benzoyl]piperidin-4-yl}phenyl)azetidine-3-carboxamide], for which the figures for the IC50 (in assay [1]; on NAMPT) were 115 nM and 0.986 nM, respectively.
As for `O=C(Nc1ccc(C2CCN(C(=O)c3cccc(OC(F)(F)F)c3)CC2)cc1)C1CN(c2cccnn2)C1` [Example 356, 1-(pyridazin-3-yl)-N-(4-{1-[3-(trifluoromethoxy)benzoyl]piperidin-4-yl}phenyl)azetidine-3-carboxamide], the IC50 in assay [1] was 67.7 nM; at NAMPT, 0.878 nM.
For `Cc1cccc(C(=O)N2CCC(c3ccc(NC(=O)C4CN(c5cccnn5)C4)cc3)CC2)c1C` [Example 357, N-{4-[1-(2,3-dimethylbenzoyl)piperidin-4-yl]phenyl}-1-(pyridazin-3-yl)azetidine-3-carboxamide], the results for the IC50 (in assay [1]; on NAMPT) were 17.7 nM and 1.14 nM, respectively.
In the case of `Cc1ccc(C(=O)N2CCC(c3ccc(NC(=O)C4CN(c5cccnn5)C4)cc3)CC2)c(C)c1` [Example 358, N-{4-[1-(2,4-dimethylbenzoyl)piperidin-4-yl]phenyl}-1-(pyridazin-3-yl)azetidine-3-carboxamide], the IC50 in assay [1] worked out at 15.9 nM; on NAMPT, 0.815 nM.
`Cc1ccc(C)c(C(=O)N2CCC(c3ccc(NC(=O)C4CN(c5cccnn5)C4)cc3)CC2)c1` [Example 359, N-{4-[1-(2,5-dimethylbenzoyl)piperidin-4-yl]phenyl}-1-(pyridazin-3-yl)azetidine-3-carboxamide]: the half-maximal inhibitory concentration (IC50) in assay [1] came out at 21.3 nM; at NAMPT, 0.869 nM.
Taken in the same sequence, the figures for `Cc1ccc(C(=O)N2CCC(c3ccc(NC(=O)C4CN(c5cccnn5)C4)cc3)CC2)cc1C` [Example 360, N-{4-[1-(3,4-dimethylbenzoyl)piperidin-4-yl]phenyl}-1-(pyridazin-3-yl)azetidine-3-carboxamide] were 22 nM and 0.782 nM.
On to `Cc1cc(C)cc(C(=O)N2CCC(c3ccc(NC(=O)C4CN(c5cccnn5)C4)cc3)CC2)c1` [Example 361, N-{4-[1-(3,5-dimethylbenzoyl)piperidin-4-yl]phenyl}-1-(pyridazin-3-yl)azetidine-3-carboxamide], for which the IC50 amounted to 37.4 nM in assay [1] and 0.988 nM on NAMPT.
`O=C(Nc1ccc(C2CCN(C(=O)c3ccc(Cl)cc3Cl)CC2)cc1)C1CN(c2cccnn2)C1` [Example 362, N-{4-[1-(2,4-dichlorobenzoyl)piperidin-4-yl]phenyl}-1-(pyridazin-3-yl)azetidine-3-carboxamide]: the results for the half-inhibitory concentration (IC50) (in assay [1]; on NAMPT) were 15.2 nM and 0.832 nM, respectively.
As for `O=C(Nc1ccc(C2CCN(C(=O)c3cc(Cl)ccc3Cl)CC2)cc1)C1CN(c2cccnn2)C1` [Example 363, N-{4-[1-(2,5-dichlorobenzoyl)piperidin-4-yl]phenyl}-1-(pyridazin-3-yl)azetidine-3-carboxamide], the IC50 was found to be 10.4 nM in assay [1] and 0.798 nM at NAMPT.
For `O=C(Nc1ccc(C2CCN(C(=O)c3ccc(Cl)c(Cl)c3)CC2)cc1)C1CN(c2cccnn2)C1` [Example 364, N-{4-[1-(3,4-dichlorobenzoyl)piperidin-4-yl]phenyl}-1-(pyridazin-3-yl)azetidine-3-carboxamide], the IC50 in assay [1] amounted to 36.9 nM; on NAMPT, 0.334 nM.
`O=C(Nc1ccc(C2CCN(C(=O)c3cc(Cl)cc(Cl)c3)CC2)cc1)C1CN(c2cccnn2)C1` [Example 365, N-{4-[1-(3,5-dichlorobenzoyl)piperidin-4-yl]phenyl}-1-(pyridazin-3-yl)azetidine-3-carboxamide]: the IC50 in assay [1] was found to be 50.1 nM; on NAMPT, 1.05 nM.
On the same counts, the results for `O=C(Nc1ccc(C2CCN(C(=O)Cc3ccccc3F)CC2)cc1)C1CN(c2cccnn2)C1` [Example 366, N-(4-{1-[(2-fluorophenyl)acetyl]piperidin-4-yl}phenyl)-1-(pyridazin-3-yl)azetidine-3-carboxamide] are 35.1 nM and 0.681 nM.

As usually defined, the IC50 is the concentration needed to halve the response being measured.
